# Measurements: the supplement of paper PMC10307832
# Assays:
# Assay in all cases: relative viability (nuclei count vs DMSO), 5 days (fraction); higher = more cells survive
# Carboplatin + Alpelisib = compound: C1CC(C1)(C(=O)O)C(=O)O.[NH2-].[NH2-].[Pt+2] [Carboplatin] + Cc1nc(NC(=O)N2CCC[C@H]2C(N)=O)sc1-c1ccnc(C(C)(C)C(F)(F)F)c1 [Alpelisib] (partner 2 µM)
# Method in brief: (§1)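 A single step with final 0.05% Triton X-100, 1% formaldehyde and 1 ug/ml Hoechst fixed the cells and stained nuclei 5 days after treatment. Lung cancer cell lines in 1536-well plates had been treated by pin tool the day after seeding with one drug alone or a fixed anchor-drug dose plus five library-drug doses (not always all listed) in √10 steps, and nuclei were counted on 4× images. Relative viability is the ratio of nuclei in treated wells to nuclei in vehicle wells, taken as the median of duplicate plates.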
# GSK126 + Trametinib = compound: CC[C@H](C)N1C=C(C2=C(C=C(C=C21)C3=CN=C(C=C3)N4CCNCC4)C(=O)NCC5=C(C=C(NC5=O)C)C)C [GSK126] + CC(=O)Nc1cccc(-n2c(=O)n(C3CC3)c(=O)c3c(Nc4ccc(I)cc4F)n(C)c(=O)c(C)c32)c1 [Trametinib] (partner 0.02 µM)
# Method in brief: as §1
# GSK126 + Olaparib = compound: CC[C@H](C)N1C=C(C2=C(C=C(C=C21)C3=CN=C(C=C3)N4CCNCC4)C(=O)NCC5=C(C=C(NC5=O)C)C)C [GSK126] + O=C(c1cc(Cc2n[nH]c(=O)c3ccccc23)ccc1F)N1CCN(C(=O)C2CC2)CC1 [Olaparib] (partner 8 µM)
# Method in brief: as §1
# MLN4924 + Lapatinib = compound: NS(=O)(=O)OC[C@@H]1C[C@@H](n2ccc3c(N[C@H]4CCc5ccccc54)ncnc32)C[C@@H]1O [MLN4924] + CS(=O)(=O)CCNCc1ccc(-c2ccc3ncnc(Nc4ccc(OCc5cccc(F)c5)c(Cl)c4)c3c2)o1 [Lapatinib] (partner 2 µM)
# Method in brief: as §1
Cell Line,relative viability (Carboplatin + Alpelisib; first compound 0.08 µM),relative viability (Carboplatin + Alpelisib; first compound 0.253 µM),relative viability (Carboplatin + Alpelisib; first compound 0.8 µM),relative viability (Carboplatin + Alpelisib; first compound 2.53 µM),relative viability (Carboplatin + Alpelisib; first compound 8 µM),relative viability (GSK126 + Trametinib; first compound 0.08 µM),relative viability (GSK126 + Trametinib; first compound 0.253 µM),relative viability (GSK126 + Trametinib; first compound 0.8 µM),relative viability (GSK126 + Trametinib; first compound 2.53 µM),relative viability (GSK126 + Trametinib; first compound 8 µM),relative viability (GSK126 + Olaparib; first compound 0.08 µM),relative viability (GSK126 + Olaparib; first compound 0.253 µM),relative viability (GSK126 + Olaparib; first compound 0.8 µM),relative viability (GSK126 + Olaparib; first compound 2.53 µM),relative viability (GSK126 + Olaparib; first compound 8 µM),relative viability (MLN4924 + Lapatinib; first compound 0.04 µM),relative viability (MLN4924 + Lapatinib; first compound 0.1265 µM),relative viability (MLN4924 + Lapatinib; first compound 0.4 µM),relative viability (MLN4924 + Lapatinib; first compound 1.265 µM),relative viability (MLN4924 + Lapatinib; first compound 4 µM)
PC-14,0.992,0.838,0.875,0.883,0.711,0.912,0.694,0.708,0.662,0.699,0.348,0.295,0.335,0.354,0.396,0.382,0.655,0.395,0.157,0.136
RERF-LC-KJ,0.887,0.806,0.81,0.883,0.594,0.902,0.981,0.733,0.841,0.825,0.935,0.979,1.04,0.826,0.83,0.746,0.555,0.227,0.191,0.221
SK-LU-1,0.903,1.07,0.933,0.792,0.392,0.519,0.524,0.485,0.816,0.486,0.555,0.452,0.45,0.396,0.482,0.703,0.491,0.299,0.19,0.181
SK-MES-1,1.06,0.906,0.922,0.873,0.917,0.573,0.6,0.539,0.491,0.515,0.798,0.787,0.721,0.724,0.657,0.534,0.722,0.486,0.281,0.212
SW 1573,0.827,0.758,0.767,0.798,0.693,0.57,0.618,0.596,0.587,0.622,0.609,0.542,0.582,0.621,0.49,0.781,1.1,0.565,0.13,0.114
